Results reported in US20120077803A1, “Uses Of NK Receptor Antagonists” (NOVARTIS AG, priority 2009, published 2012).

Assays:
[1] = system: dogs with flea allergic dermatitis; assay: Pruritus intensity by Actical activity monitors in flea allergic dogs; format: in vivo, Beagle dogs; conditions: for Actical day, mean (standard deviation): 6am-6pm; for Actical night, mean (standard deviation): 6pm-6am
Method: (§1) Flea-allergic laboratory Beagle dogs are infested with fleas. Fifty (50) Ctenocephalides felis fleas, 18 to 20 days old are released on the back of every dog on D1. Dogs are combed 48 hours (D3) after infestation to reduce the number of fleas (reduction of allergen charge).
Pruritus intensity: Pruritus intensity is evaluated using activity monitors (Actical™: Actiwatch™; Cambridge Neuorotechnology Ltd, Papworth Everard, UK) according to Nuttall and McEwan. (Nuttal T and McEwan N, “Objective measurement of pruritus in dogs: a preliminary study using activity monitors”. ESVD, 2006, 17 348-351). The physical activity monitors, mounted on collars, are placed around the dog's neck and tightened to the extent that they more with the skin but not so that they compress the underlying tissues. They were put on the dogs on D −5. […] This typically allows to see the difference in activity when the dogs have fleas and are developing pruritic and inflammatory lesions (i.e. dermatitis) and then again their activity during treatment with either the Test Compound or Prednisolone. The activity monitors are typically removed at the end of each phase on D12. Activity monitors measure the movement average within 15 seconds,
(§2) Skin lesions are allowed to develop until the total lesion score reaches ˜20. The Test Compound is then given orally at 50, 150 and 300 mg/day, divided into 2 doses, for 5 days. Prednisolone (10 mg/day, orally) is used as a comparator.
(§3) Lesion scores and Actical™ measurement values are typically observed on the following days: • Pre-value: before challenge with fleas • the day of challenge with fleas (Actical™ measurements only); • D1: the day when the total lesion score reached a sufficiently high value (average lesion score 20) and treatment of the animal started. • D2 to D6,
(§4) In the treatment group, lesion scores were taken from 8 dogs. Actical™ measurements were also taken from 6 of these dogs.

[2] = system: dogs with flea allergic dermatitis; assay: Skin lesion scores (total lesion score) in dogs with flea-allergic dermatitis; format: in vivo, Beagle dogs
Method: as §1
Skin observations: before flea infestations (D −1) all dogs are typically examined to establish a baseline score for erythema, papules, crusts, scales, alopecia, and excoriation. From D1, daily clinical observations are performed. Each lesion is typically graded using a scale from 0 to 3:
0=no signs 1=mild 2=moderate 3=severe
as §2
Erythema: is typically an acute clinical sign of cutaneous inflammation defined as redness of the skin caused by capillary congestion which can be aggravated by scratching. Excoriation: is typically a punctuate or linear abrasion produced by mechanical means, usually involving only the epidermis but not uncommonly reaching the papillary dermis. […] Papule: is typically a circumscribed, solid elevation with no visible fluid, varying in size from a pinhead to 1 cm. […], formed when there is a high break in the follicle wall. In the presence of bacteria, papules become pustules. Crusts: are typically dried serum, pus, or blood usually mixed with epithelial and sometimes bacterial debris. Scales: are dry or greasy laminated masses of keratin.
as §3, §4
• Erythema*, • Excoriations*, • Papules/pustules • Self induced alopecia^o, and • Scales, • Erythema and excoriations are related to pruritus • Self induced alopecia is also related to pruritus but the improvement is […] after several weeks of treatment.
Day 1 of treatment when dogs reached a sufficient lesion score to initiate treatment (average 20). Pre-values (baseline).

[3] = 50 mg/day orally in 2 doses, day 1 (treatment start)
[4] = 50 mg/day orally in 2 doses, day 2
[5] = 50 mg/day orally in 2 doses, day 3
[6] = 50 mg/day orally in 2 doses, day 4
[7] = 50 mg/day orally in 2 doses, day 5
[8] = 50 mg/day orally in 2 doses, day 6
[9] = 150 mg/day orally in 2 doses, day 1 (treatment start)
[10] = 150 mg/day orally in 2 doses, day 2
[11] = 150 mg/day orally in 2 doses, day 3
[12] = 150 mg/day orally in 2 doses, day 4
[13] = 150 mg/day orally in 2 doses, day 5
[14] = 150 mg/day orally in 2 doses, day 6
[15] = 300 mg/day orally in 2 doses, day 1 (treatment start)
[16] = 300 mg/day orally in 2 doses, day 2
[17] = 300 mg/day orally in 2 doses, day 3
[18] = 300 mg/day orally in 2 doses, day 4
[19] = 300 mg/day orally in 2 doses, day 5
[20] = 300 mg/day orally in 2 doses, day 6

CN(C(=O)c1cc(C(F)(F)F)cc(C(F)(F)F)c1)[C@@H](/C=C/C(=O)N[C@@H]1CCCCNC1=O)Cc1ccc(Cl)c(Cl)c1 [Test Compound, N-[(E)-(R)-1-(3,4-Dichloro-benzyl)-3-((R)-2-oxo-azepan-3-ylcarbamoyl)-allyl]-N-methyl-3,5-bis-trifluoromethyl-benzamide]
Control of pruritic activity (daytime) compared with Prednisolone ([1]; 150 mg and 50 mg, after 5 days of BID administrations): equipotent to the Prednisolone controls
Actical day, mean (standard deviation) [1, 3]: 88 (46) Average activity counts every 15 secs
Actical day, mean (standard deviation) [1, 4]: 64 (40) Average activity counts every 15 secs
Actical day, mean (standard deviation) [1, 5]: 72 (35) Average activity counts every 15 secs
Actical day, mean (standard deviation) [1, 6]: 67 (37) Average activity counts every 15 secs
Actical day, mean (standard deviation) [1, 7]: 62 (40) Average activity counts every 15 secs
Actical day, mean (standard deviation) [1, 8]: 48 (31) Average activity counts every 15 secs
Actical day, mean (standard deviation) ([1]; 50 mg/day orally in 2 doses, fleas (day of challenge)): 84 (47) Average activity counts every 15 secs
Actical day, mean (standard deviation) ([1]; 50 mg/day orally in 2 doses, pre (before exposure to fleas)): 46 (16) Average activity counts every 15 secs
Actical day, mean (standard deviation) [1, 9]: 58 (17) Average activity counts every 15 secs
Actical day, mean (standard deviation) [1, 10]: 48 (13) Average activity counts every 15 secs
Actical day, mean (standard deviation) [1, 11]: 53 (15) Average activity counts every 15 secs
Actical day, mean (standard deviation) [1, 12]: 44 (17) Average activity counts every 15 secs
Actical day, mean (standard deviation) [1, 13]: 60 (41) Average activity counts every 15 secs
Actical day, mean (standard deviation) [1, 14]: 40 (21) Average activity counts every 15 secs
Actical day, mean (standard deviation) ([1]; 150 mg/day orally in 2 doses, fleas (day of challenge)): 53 (16) Average activity counts every 15 secs
Actical day, mean (standard deviation) ([1]; 150 mg/day orally in 2 doses, pre (before exposure to fleas)): 31 (8) Average activity counts every 15 secs
Actical day, mean (standard deviation) [1, 15]: 114 (35) Average activity counts every 15 secs
Actical day, mean (standard deviation) [1, 16]: 116 (77) Average activity counts every 15 secs
Actical day, mean (standard deviation) [1, 17]: 99 (38) Average activity counts every 15 secs
Actical day, mean (standard deviation) [1, 18]: 107 (28) Average activity counts every 15 secs
Actical day, mean (standard deviation) [1, 19]: 129 (53) Average activity counts every 15 secs
Actical day, mean (standard deviation) [1, 20]: 79 (21) Average activity counts every 15 secs
Actical day, mean (standard deviation) ([1]; 300 mg/day orally in 2 doses, fleas (day of challenge)): 93 (37) Average activity counts every 15 secs
Actical day, mean (standard deviation) ([1]; 300 mg/day orally in 2 doses, pre (before exposure to fleas)): 58 (21) Average activity counts every 15 secs
Actical night, mean (standard deviation) ([1]; 50 mg/day orally in 2 doses, Fleas (day of challenge)): 6.8 (4.9) Average activity counts every 15 secs
Actical night, mean (standard deviation) ([1]; 50 mg/day orally in 2 doses, Pre (before exposure to fleas)): 5.2 (3.3) Average activity counts every 15 secs
Actical night, mean (standard deviation) [1, 3]: 22.1 (13.5) Average activity counts every 15 secs
Actical night, mean (standard deviation) [1, 4]: 13.2 (11.8) Average activity counts every 15 secs
Actical night, mean (standard deviation) [1, 5]: 11.5 (7.3) Average activity counts every 15 secs
Actical night, mean (standard deviation) [1, 6]: 12.6 (9.9) Average activity counts every 15 secs
Actical night, mean (standard deviation) [1, 7]: 9.8 (6.8) Average activity counts every 15 secs
Actical night, mean (standard deviation) [1, 8]: 9.9 (7.4) Average activity counts every 15 secs
Actical night, mean (standard deviation) ([1]; 150 mg/day orally in 2 doses, Fleas (day of challenge)): 6.2 (3.8) Average activity counts every 15 secs
Actical night, mean (standard deviation) ([1]; 150 mg/day orally in 2 doses, Pre (before exposure to fleas)): 4.2 (2.2) Average activity counts every 15 secs
Actical night, mean (standard deviation) [1, 9]: 14.6 (4.2) Average activity counts every 15 secs
Actical night, mean (standard deviation) [1, 10]: 10.7 (6.8) Average activity counts every 15 secs
Actical night, mean (standard deviation) [1, 11]: 10.6 (7.5) Average activity counts every 15 secs
Actical night, mean (standard deviation) [1, 12]: 9.4 (4.2) Average activity counts every 15 secs
Actical night, mean (standard deviation) [1, 13]: 10.4 (6.5) Average activity counts every 15 secs
Actical night, mean (standard deviation) [1, 14]: 11.2 (7.4) Average activity counts every 15 secs
Actical night, mean (standard deviation) ([1]; 300 mg/day orally in 2 doses, Fleas (day of challenge)): 6.8 (3.0) Average activity counts every 15 secs
Actical night, mean (standard deviation) ([1]; 300 mg/day orally in 2 doses, Pre (before exposure to fleas)): 7.0 (3.8) Average activity counts every 15 secs
Actical night, mean (standard deviation) [1, 15]: 24.6 (22.5) Average activity counts every 15 secs
Actical night, mean (standard deviation) [1, 16]: 11.9 (4.8) Average activity counts every 15 secs
Actical night, mean (standard deviation) [1, 17]: 16.8 (9.5) Average activity counts every 15 secs
Actical night, mean (standard deviation) [1, 18]: 20.7 (10.5) Average activity counts every 15 secs
Actical night, mean (standard deviation) [1, 19]: 16.2 (13.2) Average activity counts every 15 secs
Actical night, mean (standard deviation) [1, 20]: 13.3 (10.2) Average activity counts every 15 secs
Control of nighttime activity back to baseline ([1]; Test Compound doses, in particular 50 mg, BID): positive efficacy
Total score ctb (total lesion score compared to baseline), mean (standard deviation) [2, 4]: −3.7 (4.9)
Total score ctb (total lesion score compared to baseline), mean (standard deviation) [2, 5]: −2.8 (5.5)
Total score ctb (total lesion score compared to baseline), mean (standard deviation) [2, 6]: −1.9 (7.1)
Total score ctb (total lesion score compared to baseline), mean (standard deviation) [2, 7]: −2.8 (6.4)
Total score ctb (total lesion score compared to baseline), mean (standard deviation) [2, 8]: −8.7 (9.9)
Total score ctb (total lesion score compared to baseline), mean (standard deviation) [2, 10]: −2.3 (3.3)
Total score ctb (total lesion score compared to baseline), mean (standard deviation) [2, 11]: −3.9 (4.0)
Total score ctb (total lesion score compared to baseline), mean (standard deviation) [2, 12]: −6.4 (3.3)
Total score ctb (total lesion score compared to baseline), mean (standard deviation) [2, 13]: −5.0 (3.8)
Total score ctb (total lesion score compared to baseline), mean (standard deviation) [2, 14]: −8.8 (8.8)
Reduction of the lesion score (inhibition) compared with prednisolone ([2]; 300 mg, 150 mg, 50 mg): in the same range as the potent corticosteroid prednisolone
Total score ctb (total lesion score compared to baseline), mean (standard deviation) [2, 16]: −3.6 (9.1)
Total score ctb (total lesion score compared to baseline), mean (standard deviation) [2, 17]: −4.1 (6.4)
Total score ctb (total lesion score compared to baseline), mean (standard deviation) [2, 18]: −7.6 (8.4)
Total score ctb (total lesion score compared to baseline), mean (standard deviation) [2, 19]: −7.6 (9.7)
Total score ctb (total lesion score compared to baseline), mean (standard deviation) [2, 20]: −6.7 (8.1)
